According to patent US4251528A, “Phthalazin-4-ylacetic acid derivatives” (Imperial Chemical Industries Limited, priority 1977, dated 1981):

Columns and labels:
aldose reductase = target: T1, aldose reductase (Rattus norvegicus, UniProt P07943); experiment: streptozotocin diabetic rat test, residual sorbitol levels in tissues; format: in vivo; settings: oral dosing at 10 mg./kg. for 5 days
T1 construct: the eye lenses and sciatic nerves are removed; from tissue; host or cells: rat sciatic nerve (and eye lens), enzyme acting in the living animal
Protocol: Thus, rats are made diabetic by dosing with streptozotocin and are then dosed daily with the test compound for 5 days. The animals are then killed and the eye lenses and sciatic nerves are removed. After a standard work-up procedure the residual sorbitol levels in each tissue are determined by gas liquid chromatography after conversion to the poly trimethylsilyl derivatives. Inhibition of aldose reductase in vivo is then assessed by comparing the residual sorbitol levels in tissues from the dosed diabetic group of rats with those of an undosed group of diabetic rats and an undosed, normal group of rats.
Alternatively, a modified test may be used in which the streptozotocin induced diabetic rats are dosed daily with test compound for two days. After 2-4 hours from the final dose the animals are killed and the sciatic nerves are removed and assessed for residual sorbitol levels as described above.
Active compounds in either of these tests reduce residual sorbitol levels to levels which are similar to those of normal, undosed rats. […] No overt toxic or other undesirable effects were detected with compounds of formula I at 100 mg./kg. in the above tests.

[1] = system: carageenin induced oedema; format: in vivo, rats; settings: for overt toxicity: rat, in vivo; for inhibition of carageenin induced oedema: rats
Protocol: The compounds of the invention may therefore in addition be useful in the treatment of painful inflammatory joint diseases such as rheumatoid arthritis, osteoarthritis and ankylosing spondylitis. In this connection it is envisaged that they would be administered primarily orally at a daily dose in the range 10-50 mg./kg.

[2] = target: T2, purified aldose reductase isolated from bovine lenses (Bos taurus, UniProt P16116); experiment: in vitro inhibition of purified aldose reductase (reduction of glucose to sorbitol, spectrophotometric); format: biochemical
T2 construct: purified aldose reductase is isolated in known manner from bovine lenses; from tissue; host or cells: bovine lens
Protocol: Thus, purified aldose reductase is isolated in known manner from bovine lenses. The percentage inhibition of these enzyme's ability in vitro to reduce aldoses to polyhydric alcohols, and particularly to reduce glucose to sorbitol, caused by a test compound is then determined using standard spectrophotometric methods. […] Thus, by way of illustration, 2-(2-fluoro-4-bromobenzyl)-1,2-dihydro-1-oxophthalazin-4-ylacetic acid has a Ki of 2.0×10^-8 M.

Row | Compound | residual sorbitol level in the sciatic nerve, relative to control undosed diabetic rats (aldose reductase) | overt toxicity [1] | inhibition of carageenin induced oedema [1] | Ki [2] [µM]
1 | O=C(O)Cc1nn(Cc2ccc(Br)cc2F)c(=O)c2ccccc12 [2-(2-fluoro-4-bromobenzyl)-1,2-dihydro-1-oxophthalazin-4-ylacetic acid] | approximately 60% | without any sign of overt toxicity | significant inhibition | 0.02
2 | O=C(O)Cc1nn(Cc2ccc(Br)c(Cl)c2)c(=O)c2ccccc12 [2-(3-chloro-4-bromobenzyl)-1,2-dihydro-1-oxophthalazin-4-ylacetic acid] | – | without any sign of overt toxicity | significant inhibition | –
